In patent US20100021398A1, “COMPOSITIONS AND METHODS FOR LIGHTENING SKIN AND PROTECTING SKIN FROM ULTRAVIOLET RADIATION WITH GLUTATHIONE” (priority 2008, published 2010):

Tests used:
Mitochondrial SOD 2 = assay: up-regulation of anti-oxidant enzyme SOD by glutathione; type: cell-based; conditions: glutathione up-regulating anti-oxidant enzymes
[1] = unmodified glutathione, cited from earlier work

## N[C@@H](CCC(=O)N[C@@H](CS)C(=O)NCC(=O)O)C(=O)O [glutathione]
Mitochondrial SOD 2
  SOD increase: 182%
[1]; blood stream
  half-life in the blood stream: about a minute and a half
[1]; blood
  half-life in the blood: around 120 seconds
